Assay results published in PMC12723682, “Ligand-Directed Self-Assembling Chimeras for Targeted Protein O‑GlcNAcylation” (ACS Chemical Biology, 2025).
pKd: −log10 of the molar value.

Assays:
[1] = target: T1, O-GlcNAc transferase (OGT) (Homo sapiens, UniProt O15294); assay: SPR steady-state affinity on immobilized OGT; also in-gel covalent labelling of purified OGT, competed by OSMI-4; assay type: binding
T1 sequence (O15294 2-1046): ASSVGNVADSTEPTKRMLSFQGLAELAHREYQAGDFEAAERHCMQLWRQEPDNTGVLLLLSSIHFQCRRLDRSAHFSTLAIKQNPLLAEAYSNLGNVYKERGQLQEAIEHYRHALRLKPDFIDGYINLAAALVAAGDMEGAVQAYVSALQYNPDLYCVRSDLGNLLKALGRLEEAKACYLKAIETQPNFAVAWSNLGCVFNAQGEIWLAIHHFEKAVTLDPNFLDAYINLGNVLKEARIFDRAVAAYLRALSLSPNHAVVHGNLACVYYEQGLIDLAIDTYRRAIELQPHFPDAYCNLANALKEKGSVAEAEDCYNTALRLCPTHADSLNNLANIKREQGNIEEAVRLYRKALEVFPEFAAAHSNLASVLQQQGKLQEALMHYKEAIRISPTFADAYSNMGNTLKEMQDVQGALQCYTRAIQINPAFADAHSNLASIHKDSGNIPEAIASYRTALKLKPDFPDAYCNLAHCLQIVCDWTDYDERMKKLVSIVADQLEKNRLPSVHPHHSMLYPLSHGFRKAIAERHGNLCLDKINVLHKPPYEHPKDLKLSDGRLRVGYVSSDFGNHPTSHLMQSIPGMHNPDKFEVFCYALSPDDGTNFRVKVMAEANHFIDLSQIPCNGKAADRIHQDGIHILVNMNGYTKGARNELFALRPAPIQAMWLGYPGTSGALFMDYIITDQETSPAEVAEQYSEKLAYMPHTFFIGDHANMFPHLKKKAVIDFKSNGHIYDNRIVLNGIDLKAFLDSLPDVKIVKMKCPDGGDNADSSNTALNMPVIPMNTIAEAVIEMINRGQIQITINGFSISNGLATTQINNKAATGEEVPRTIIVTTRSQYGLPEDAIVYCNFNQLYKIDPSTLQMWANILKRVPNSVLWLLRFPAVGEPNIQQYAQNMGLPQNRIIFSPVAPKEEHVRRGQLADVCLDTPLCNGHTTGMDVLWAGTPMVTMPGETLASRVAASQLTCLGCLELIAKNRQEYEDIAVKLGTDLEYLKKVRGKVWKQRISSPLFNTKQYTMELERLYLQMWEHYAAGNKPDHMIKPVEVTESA

[2] = target: T1, O-GlcNAc transferase (OGT); assay: SPR, confirmed by MST; also in-gel covalent labelling of purified OGT, competed by OSMI-4; assay type: binding

pKd [1]	pKd [2]	Structure (SMILES)
5.70		C#CCCCCC(=O)N(CC#N)S(=O)(=O)c1cc2ccc(=O)[nH]c2cc1Cl [7a]
	4.55	C#CCCCCC(=O)N(CC#N)S(=O)(=O)c1ccc2[nH]c(=O)ccc2c1 [8a]
